Molecules are shown by their SMILES.

Data set [1] in a line: RP-HPLC retention on Purosphere RP-18e (ODS) column, buffer pH 7.4-acetonitrile. The format is physicochemical. To be noted: for log kw, ODS: extrapolated to buffer pH 7.4 as mobile phase, 25 °C; for s ODS: slope of Soczewiński-Wachtmeister equation, acetonitrile φ 0.3–0.6. As for the experimental part:
(§1) Retention parameters reported as the log k values were calculated by the expression:(1) logk=log(tR−t0)/t0 where tR and t0 are the retention times of the solute and a non-retained compound (citric acid), respectively. They were used to calculate the log kw values, i.e., logarithms of retention parameter in the buffer as the mobile phase. For this purpose the Soczewiński-Wachtmeister’s equation was used:log k = log kw − sφ(2) where φ is the volume fraction of organic modifier in the mobile phase; k and kw are retention parameters corresponding to mixed effluent and buffer as the mobile phase, respectively. The slope s is characteristic of a given solute and chromatographic system. Strong linear relationships between log k and φ values were found for all the compounds in the range of effluent composition examined (R^2 > 0.9). The log kw values determined for the ODS (log kw, ODS), IAM (log kw, IAM) and Cholester (log kw, Cholester) columns were intercorrelated and the following linear relationships with a very good statistical quality were obtained:log kw, ODS = 0.691(± 0.094) + 0.982(± 0.044) log kw, IAM(3) SD = 0.257; R^2 = 0.8880; N = 65 log kw, ODS = 0.911(± 0.062) + 0.765(± 0.025) log kw, Cholester(4) SD = 0.192; R^2 = 0.9371; N = 65 log kw, IAM = 0.356(± 0.073) + 0.721(± 0.029) log kw, Cholester(5) SD = 0.224; R^2 = 0.9068; N = 65
(§2) Shimadzu Vp (Shimadzu, Izabelin, Poland) liquid chromatographic system equipped with LC 10AT pump, SPD 10A UV-Vis detector, SCL 10A system controller, CTO-10 AS chromatographic oven and Rheodyne injector valve with a 20 µL loop was applied in HPLC measurements. Three stationary phases were employed: • Purosphere RP-18e (ODS), 125 × 4 mm i.d., 5 µm (Merck); • IAM.PC.DD2 100 × 4.6 mm i.d., 10 µm (Regis Chemicals Company, Morton Grove, IL, USA); • Cosmosil Cholester, 75 × 2 mm i.d., 2.5 µm (Genore, Warsaw, Poland).
(§3) As mobile phases buffer-acetonitrile mixtures were used. The buffer was prepared from 0.01 mol L^−1 solutions of Na2HPO4 and citric acid and the pH 7.4 value was fixed before mixing with organic modifier. With the ODS column acetonitrile concentration in the effluent, expressed as a volume fraction (φ, v/v), was changed in the range 0.3–0.6, with the constant step of 0.1. The flow rate was 1 mL min^−1. With the IAM column acetonitrile concentration was changed in the range 0.2–0.5, also with the constant step of 0.1 and the flow rate was 1.3 mL min^−1. With the Cosmosil Cholester column acetonitrile concentration was changed in the range 0.4–0.6, with the constant step of 0.05 and the flow rate was 0.4 mL min^−1. Samples of test compounds were dissolved in acetonitrile—c.a. 0.005 mg mL^−1. […] They were detected under UV light at 210 and 254 nm. All measurements were carried out at 25 °C. The dead time values were measured from non-retained compound (citric acid) peaks. All reported log kw values are the average of at least three independent measurements. The extrapolated retention coefficients (logs kw) achieved by HPLC on ODS, IAM and Cholester stationary phases were used for modelling the log BB permeation of 65 drug-like compounds employed as a whole test set (Table 1).

A short description of data set [2]: RP-HPLC retention on Cosmosil Cholester column, buffer pH 7.4-acetonitrile. The format is physicochemical. To be noted: for log kw, Cholester: extrapolated to buffer pH 7.4 as mobile phase, 25 °C; for s Cholester: slope of Soczewiński-Wachtmeister equation, acetonitrile φ 0.4–0.6. As for the experimental part: as §1, §2, §3
The subject of the next data set is normal cells. The arrangement: method as in doi:10.1016/j.arabjc.2016.12.024, PMID 24126095. The note with it: cited from earlier work.
For a further data set, the system named is human cancer cells. On the set-up: method as in doi:10.1016/j.arabjc.2016.12.024, PMID 24126095. To be noted: cited from earlier work.
Data set [3] is described as follows: RP-HPLC retention on IAM.PC.DD2 (immobilized artificial membrane) column, buffer pH 7.4-acetonitrile. The format is physicochemical. The note with it: for log kw, IAM: extrapolated to buffer pH 7.4 as mobile phase, 25 °C; for s IAM: slope of Soczewiński-Wachtmeister equation, acetonitrile φ 0.2–0.5. As for the experimental part:
as §1, §2, §3

Regarding `CCc1nnc2n(c1=O)CCN2c1ccccc1` [Compound 1], in data set [1], the “log kw, ODS” value was 0.97 and the “s ODS” value worked out at 2.70. In data set [2], the “log kw, Cholester” value is 0.20 and the “s Cholester” value is reported as 1.25. Besides, the “toxic effects for normal cells” value in the data set on normal cells was “less toxic effects”. Also, the “antiproliferative activities in human cancer cells” value (“antiproliferative activities” below) with human cancer cells is “significant antiproliferative activities”. In addition, in data set [3], the “log kw, IAM” value is 0.55 and the “s IAM” value is 2.10.
Take `CCc1nnc2n(c1=O)CCN2c1ccc(C)cc1` [Compound 2]: in data set [1], the “log kw, ODS” value is 1.30 and the “s ODS” value turned out to be 3.12. In addition, in data set [2], the “log kw, Cholester” value is given as 0.57 and the “s Cholester” value is 1.84. Further, in the data set on normal cells, the “toxic effects for normal cells” value was “less toxic effects”. For the same compound, the “antiproliferative activities” value in the data set on human cancer cells was “significant antiproliferative activities”. Further, in data set [3], the “log kw, IAM” value is listed as 1.00 and the “s IAM” value turned out to be 2.88.
On to `CCc1nnc2n(c1=O)CCN2c1cccc(Cl)c1` [Compound 4], for which, in data set [1], the “log kw, ODS” value is listed as 1.33 and the “s ODS” value was found to be 3.15. Further, in data set [2], the “log kw, Cholester” value is given as 0.62 and the “s Cholester” value is given as 1.82. Besides, the “toxic effects for normal cells” value in the data set on normal cells is listed as “less toxic effects”. Further, the “antiproliferative activities” value with human cancer cells was “significant antiproliferative activities”. Further, in data set [3], the “log kw, IAM” value was 0.84 and the “s IAM” value came out at 2.60.
Consider `CCc1nnc2n(c1=O)CCN2c1ccc(Cl)cc1` [Compound 5], for which, in data set [1], the “log kw, ODS” value was 1.78 and the “s ODS” value was determined as 3.56. For the same compound, in data set [2], the “log kw, Cholester” value was 1.18 and the “s Cholester” value amounted to 2.61. In addition, in the data set with normal cells, the “toxic effects for normal cells” value is “less toxic effects”. Moreover, the “antiproliferative activities” value in the data set with human cancer cells is given as “significant antiproliferative activities”. Moreover, in data set [3], the “log kw, IAM” value was 1.24 and the “s IAM” value is reported as 3.25.
With `CCOC(=O)Cc1nnc2n(c1=O)CCN2c1cccc(Cl)c1` [Compound 15], in data set [1], the “log kw, ODS” value is 2.85 and the “s ODS” value turned out to be 4.90. In addition, in data set [2], the “log kw, Cholester” value was 2.41 and the “s Cholester” value stood at 4.15. Besides, the “toxic effects for normal cells” value with normal cells was “less toxic effects”. In the data set on human cancer cells, the “antiproliferative activities” value was “significant antiproliferative activities”. Moreover, in data set [3], the “log kw, IAM” value is listed as 2.05 and the “s IAM” value is listed as 4.45.
For `Cc1ccccc1N1CCn2c1nnc(-c1ccco1)c2=O` [Compound 19], in data set [1], the “log kw, ODS” value is listed as 1.74 and the “s ODS” value amounted to 3.48. Moreover, in data set [2], the “log kw, Cholester” value was 1.20 and the “s Cholester” value worked out at 2.78. Further, the “toxic effects for normal cells” value with normal cells is on record as “less toxic effects”. For the same compound, the “antiproliferative activities” value in the data set with human cancer cells was “significant antiproliferative activities”. Also, in data set [3], the “log kw, IAM” value is on record as 0.96 and the “s IAM” value is 2.72.
For `Cc1cccc(N2CCn3c2nnc(-c2ccco2)c3=O)c1C` [Compound 21], in data set [1], the “log kw, ODS” value is recorded as 2.26 and the “s ODS” value worked out at 4.20. Further, in data set [2], the “log kw, Cholester” value was 1.66 and the “s Cholester” value turned out to be 3.33. Besides, the “toxic effects for normal cells” value in the data set with normal cells is “less toxic effects”. For the same compound, in the data set with human cancer cells, the “antiproliferative activities” value was “significant antiproliferative activities”. Moreover, in data set [3], the “log kw, IAM” value is recorded as 1.42 and the “s IAM” value is reported as 3.51.
On to `COc1ccccc1N1CCn2c1nnc(-c1ccco1)c2=O` [Compound 22], for which, in data set [1], the “log kw, ODS” value is on record as 1.67 and the “s ODS” value is 3.48. In data set [2], the “log kw, Cholester” value was 1.22 and the “s Cholester” value was found to be 2.68. In addition, in the data set with normal cells, the “toxic effects for normal cells” value is “less toxic effects”. Moreover, the “antiproliferative activities” value in the data set with human cancer cells was “significant antiproliferative activities”. In addition, in data set [3], the “log kw, IAM” value is listed as 1.11 and the “s IAM” value worked out at 3.02.
Regarding `O=c1c(-c2ccco2)nnc2n1CCN2c1ccccc1Cl` [Compound 24], in data set [1], the “log kw, ODS” value was 2.25 and the “s ODS” value is reported as 4.22. Further, in data set [2], the “log kw, Cholester” value was 1.34 and the “s Cholester” value is recorded as 2.95. Besides, the “toxic effects for normal cells” value with normal cells is “less toxic effects”. For the same compound, the “antiproliferative activities” value in the data set on human cancer cells is “significant antiproliferative activities”. In data set [3], the “log kw, IAM” value is reported as 1.27 and the “s IAM” value stood at 3.25.
`O=c1c(-c2ccco2)nnc2n1CCN2c1c(Cl)cccc1Cl` [Compound 28]: in data set [1], the “log kw, ODS” value was 2.53 and the “s ODS” value was found to be 4.45. Further, in data set [2], the “log kw, Cholester” value is 2.05 and the “s Cholester” value was found to be 3.66. The “toxic effects for normal cells” value in the data set on normal cells was “less toxic effects”. In addition, the “antiproliferative activities” value with human cancer cells is reported as “significant antiproliferative activities”. For the same compound, in data set [3], the “log kw, IAM” value is recorded as 1.70 and the “s IAM” value stood at 3.90.
For the compound `O=c1c(-c2ccccc2)nnc2n1CCN2c1ccc(Cl)cc1` [Compound 39], in data set [1], the “log kw, ODS” value is 3.41 and the “s ODS” value amounted to 5.20. Further, in data set [2], the “log kw, Cholester” value is 3.19 and the “s Cholester” value is given as 5.30. For the same compound, the “toxic effects for normal cells” value in the data set on normal cells is on record as “less toxic effects”. The “antiproliferative activities” value in the data set on human cancer cells is recorded as “significant antiproliferative activities”. In data set [3], the “log kw, IAM” value is 2.57 and the “s IAM” value was 5.32.
Consider `O=c1c(Cc2cccc(Cl)c2)nnc2n1CCN2c1ccc(Cl)cc1` [Compound 59], for which, in data set [1], the “log kw, ODS” value was 3.61 and the “s ODS” value is given as 5.85. Besides, in data set [2], the “log kw, Cholester” value is 3.67 and the “s Cholester” value is listed as 5.75. Besides, in data set [3], the “log kw, IAM” value is recorded as 3.15 and the “s IAM” value was 6.01.
As to `O=c1c(Cc2ccc(Cl)cc2)nnc2n1CCN2c1ccc(Cl)cc1` [Compound 60], in data set [1], the “log kw, ODS” value is reported as 4.02 and the “s ODS” value is recorded as 6.45. In data set [2], the “log kw, Cholester” value was 3.68 and the “s Cholester” value is on record as 5.82. Also, in data set [3], the “log kw, IAM” value is reported as 3.17 and the “s IAM” value came out at 6.18.
`O=c1c(CCc2ccccc2)nnc2n1CCN2c1ccccc1` [Compound 61]: in data set [1], the “log kw, ODS” value is reported as 2.80 and the “s ODS” value turned out to be 4.92. For the same compound, in data set [2], the “log kw, Cholester” value is 2.33 and the “s Cholester” value was 4.02. In data set [3], the “log kw, IAM” value was 2.07 and the “s IAM” value is given as 4.45.
For the compound `Cc1ccc(N2CCn3c2nnc(CCc2ccccc2)c3=O)cc1` [Compound 62], in data set [1], the “log kw, ODS” value is recorded as 3.23 and the “s ODS” value is 5.44. In data set [2], the “log kw, Cholester” value is recorded as 2.84 and the “s Cholester” value amounted to 4.70. Also, in data set [3], the “log kw, IAM” value is 2.41 and the “s IAM” value is 5.01.
In the case of `O=c1c(CCc2ccccc2)nnc2n1CCN2c1ccc(Cl)c(Cl)c1` [Compound 65], in data set [1], the “log kw, ODS” value is 4.29 and the “s ODS” value is recorded as 6.66. Further, in data set [2], the “log kw, Cholester” value is reported as 4.12 and the “s Cholester” value is 6.20. Moreover, in data set [3], the “log kw, IAM” value is listed as 3.40 and the “s IAM” value stood at 6.55.

The record behind these values is PMC7037052, “Predicting the Blood-Brain Barrier Permeability of New Drug-Like Compounds via HPLC with Various Stationary Phases” (Molecules, 2020).
